Tests used:
[1] = test system: PCP (antagonist radioligand); conditions: at the tested concentration; negative values set to zero
M1 Muscarinic Receptor = M1 Muscarinic Receptor (Homo sapiens, UniProt P11229); test: (S)-BTC titration on M1 in the presence of fixed (R)-THP concentrations; assay type: cell-based; conditions: with increasing concentration of (R)-THP (58.5, 195, 585 nM)
Experimental: All cells used in the following experiments were clonal populations of Chinese Hamster Ovary (CHO) cells stably expressing the corresponding human muscarinic receptor, except for the M4 cell line, which was a population of CHO cells transiently transfected with the human M4 receptor. […] The procedure was as follows: • 1. Cells were thawed and cultured in cell culture medium (DMEM/F12 containing 10% FBS, 1× penicillin-streptomycin and 600 μg/ml hygromycin B) at 37° C. in 5% (v/v) CO2. • 2. One day before the assays, cells were detached using TrypLE™ and counted using a cell-counter. […] 12,000 cells/well were seeded in 30 μl/well culture medium in a 384-well cell plate and incubated overnight at 37C, 5% (v/v) CO2. • 4. On the assay day, 2× dye solution was prepared following the manual of the FLIPR® Calcium 6 Assay Kit: • i. The dye was diluted with assay buffer (20 mM HEPES in 1× HBSS, PH 7.4); • ii. Probenecid was added to a final concentration of 5 mM; • iii. Cells were vortexed vigorously for 1-2 minutes. • 5. Medium was removed from the cell plate by flicking the cell plate on paper towels. • 6. 10 μl of assay buffer and 10 μl of 2× dye solution was added to each well of the cell plate. • 7. […] Plates were read for 160 sec with 1 sec intervals to obtain the data in agonist mode, then kept at 25° C. in the dark for 30 min. • 11.

SMILES | signal, PCP (antagonist radioligand) [1] | agonist effect of (S)-BTC toward the M1 muscarinic receptor (M1 Muscarinic Receptor)
O[C@@](CCN1CCCCC1)(c1ccccc1)C1CCCCC1 [(R)-THP, (R)-trihexyphenidyl] | 0.00% | 
C[C@@H](C[N+](C)(C)C)OC(N)=O.[Cl-] [(S)-BTC, (S)-bethanechol] |  | decreases substantially
